Series [1] can be described thus: Solubility of crosslinking agent HMTA in methyl benzoate by proton NMR with duroquinone internal standard. The class given is physicochemical. The following applies: solvent methyl benzoate. The method, then: For compositional analysis, a Bruker 400 megahertz (MHz) NMR instrument was used. The solubility of crosslinking agent, HMTA, in methyl benzoate was measured by using duroquinone as the internal standard.
The high solubility of HMTA results directly from the plasticized phenol-formaldehyde prepolymer. […] J. P. Patel, et al., J. Polym. Sci. Part B: Polym. Phys., 2015, vol. 53, pp. 1519-1526. […] In this scheme methyl benzoate indirectly increases the interaction between the two reactants, the crosslinking agent HMTA and the phenol-formaldehyde prepolymer.

The conditions of series [2]: solvent furfural; cited from earlier work.

With `C1N2CN3CN1CN(C2)C3` [HMTA, hexamethylenetetramine], the “solubility of HMTA in methyl benzoate (in words)” value in series [1] is listed as “virtually insoluble”. The “solubility of HMTA in methyl benzoate” value in series [1] (proton NMR, duroquinone internal standard) is “no more than 5 milligrams of HMTA per milliliter of methyl benzoate”. Besides, the “solubility of HMTA in furfural” value in series [2] is on record as “less than two”.

The values are drawn from patent US10815329B2, “Plasticized thermoset resin, and associated cured resin, method of curing, and article comprising cured resin” (The University of Massachusetts, priority 2016, dated 2020).
